Legend:
Format in all cases: functional, cell-based
[1] = system: A549; assay: Antiproliferative activity against human A549 cells after 72 hrs by MTT assay; conditions: A549, 72 h
[2] = system: MCF7; assay: Antiproliferative activity against human MCF7 cells after 72 hrs by MTT assay; conditions: MCF7, 72 h
[3] = system: HepG2; assay: Antiproliferative activity against human HepG2 cells after 72 hrs by MTT assay; conditions: HepG2, 72 h
[4] = system: HCT-116; assay: Antiproliferative activity against human HCT116 cells after 72 hrs by MTT assay; conditions: HCT-116, 72 h
[5] = system: MGC-803; assay: Antiproliferative activity against human MGC803 cells after 72 hrs by MTT assay; conditions: MGC-803, 72 h

SMILES: COc1ccccc1-n1cc(COC(=O)[C@]23CCC(C)(C)C[C@H]2C2=CC[C@@H]4[C@@]5(C)CC[C@H](O[C@@H]6O[C@H](CO[C@@H]7OC[C@H](O)[C@H](O)[C@@H]7O)[C@@H](O)[C@H](O)[C@H]6NC(C)=O)C(C)(C)[C@@H]5CC[C@@]4(C)[C@]2(C)CC3)nn1
- IC50 [1]: 59.9 µM
- IC50 [2]: 53.1 µM
- IC50 [3]: 49.7 µM
- IC50 [4]: 55.8 µM
- IC50 [5]: 53 µM

SMILES: CC(=O)N[C@H]1[C@H](O[C@H]2CC[C@]3(C)[C@H]4CC=C5[C@@H]6CC(C)(C)CC[C@]6(C(=O)OCc6cn(-c7ccccc7F)nn6)CC[C@@]5(C)[C@]4(C)CC[C@H]3C2(C)C)O[C@H](CO[C@@H]2OC[C@H](O)[C@H](O)[C@@H]2O)[C@@H](O)[C@@H]1O
- IC50 [1]: 24.2 µM
- IC50 [2]: 47.6 µM
- IC50 [3]: 18.9 µM
- IC50 [4]: 23.5 µM
- IC50 [5]: 20.7 µM

SMILES: CC(=O)N[C@H]1[C@H](O[C@H]2CC[C@]3(C)[C@H]4CC=C5[C@@H]6CC(C)(C)CC[C@]6(C(=O)OCc6cn(-c7ccccc7OC(F)(F)F)nn6)CC[C@@]5(C)[C@]4(C)CC[C@H]3C2(C)C)O[C@H](CO[C@@H]2OC[C@H](O)[C@H](O)[C@@H]2O)[C@@H](O)[C@@H]1O
- IC50 [1]: 15 µM
- IC50 [2]: 32 µM
- IC50 [3]: 31.6 µM
- IC50 [4]: 37.9 µM
- IC50 [5]: 36.9 µM

SMILES: CCOc1ccc(-n2cc(COC(=O)[C@]34CCC(C)(C)C[C@H]3C3=CC[C@@H]5[C@@]6(C)CC[C@H](O[C@@H]7O[C@H](CO[C@@H]8OC[C@H](O)[C@H](O)[C@@H]8O)[C@@H](O)[C@H](O)[C@H]7NC(C)=O)C(C)(C)[C@@H]6CC[C@@]5(C)[C@]3(C)CC4)nn2)cc1
- IC50 [1]: 19.7 µM
- IC50 [2]: 24.5 µM
- IC50 [3]: 13.6 µM
- IC50 [4]: 16.6 µM
- IC50 [5]: 21.3 µM

SMILES: CC(=O)N[C@H]1[C@H](O[C@H]2CC[C@]3(C)[C@H]4CC=C5[C@@H]6CC(C)(C)CC[C@]6(C(=O)OCc6cn(-c7ccc(C#N)cc7)nn6)CC[C@@]5(C)[C@]4(C)CC[C@H]3C2(C)C)O[C@H](CO[C@@H]2OC[C@H](O)[C@H](O)[C@@H]2O)[C@@H](O)[C@@H]1O
- IC50 [1]: 22.6 µM
- IC50 [2]: 15.8 µM
- IC50 [3]: 17.5 µM
- IC50 [4]: 8.86 µM
- IC50 [5]: 18.2 µM

SMILES: CC(=O)N[C@H]1[C@H](O[C@H]2CC[C@]3(C)[C@H]4CC=C5[C@@H]6CC(C)(C)CC[C@]6(C(=O)OCc6cn(-c7cccc(C)c7)nn6)CC[C@@]5(C)[C@]4(C)CC[C@H]3C2(C)C)O[C@H](CO[C@@H]2OC[C@H](O)[C@H](O)[C@@H]2O)[C@@H](O)[C@@H]1O
- IC50 [1]: 14.5 µM
- IC50 [2]: 20.2 µM
- IC50 [3]: 10.6 µM
- IC50 [4]: 7.1 µM
- IC50 [5]: 11 µM

SMILES: COc1cccc(-n2cc(COC(=O)[C@]34CCC(C)(C)C[C@H]3C3=CC[C@@H]5[C@@]6(C)CC[C@H](O[C@@H]7O[C@H](CO[C@@H]8OC[C@H](O)[C@H](O)[C@@H]8O)[C@@H](O)[C@H](O)[C@H]7NC(C)=O)C(C)(C)[C@@H]6CC[C@@]5(C)[C@]3(C)CC4)nn2)c1
- IC50 [1]: 13.3 µM
- IC50 [2]: 20.9 µM
- IC50 [3]: 6.47 µM
- IC50 [4]: 12.4 µM
- IC50 [5]: 11.6 µM

SMILES: O=c1[nH]cc(F)c(=O)[nH]1 [FLUOROURACIL]
- IC50 [1]: 71.1 µM
- IC50 [3]: 48 µM
- IC50 [4]: 38.3 µM
- IC50 [5]: 31 µM

SMILES: CC(=O)N[C@H]1[C@H](O[C@H]2CC[C@]3(C)[C@H]4CC=C5[C@@H]6CC(C)(C)CC[C@]6(C(=O)OCc6cn(-c7ccccc7C)nn6)CC[C@@]5(C)[C@]4(C)CC[C@H]3C2(C)C)O[C@H](CO[C@@H]2OC[C@H](O)[C@H](O)[C@@H]2O)[C@@H](O)[C@@H]1O
- IC50 [1]: 63.7 µM
- IC50 [2]: 86.9 µM
- IC50 [3]: 51.3 µM
- IC50 [4]: 10.9 µM
- IC50 [5]: 58.1 µM

SMILES: CC(=O)N[C@H]1[C@H](O[C@H]2CC[C@]3(C)[C@H]4CC=C5[C@@H]6CC(C)(C)CC[C@]6(C(=O)OCc6cn(-c7ccc(Cl)cc7)nn6)CC[C@@]5(C)[C@]4(C)CC[C@H]3C2(C)C)O[C@H](CO[C@@H]2OC[C@H](O)[C@H](O)[C@@H]2O)[C@@H](O)[C@@H]1O
- IC50 [1]: 38.7 µM
- IC50 [2]: 67.1 µM
- IC50 [3]: 28.4 µM
- IC50 [4]: 37.9 µM
- IC50 [5]: 24.9 µM

SMILES: CC(=O)N[C@H]1[C@H](O[C@H]2CC[C@]3(C)[C@H]4CC=C5[C@@H]6CC(C)(C)CC[C@]6(C(=O)OCc6cn(-c7ccc(C)cc7C)nn6)CC[C@@]5(C)[C@]4(C)CC[C@H]3C2(C)C)O[C@H](CO[C@@H]2OC[C@H](O)[C@H](O)[C@@H]2O)[C@@H](O)[C@@H]1O
- IC50 [1]: 42.3 µM
- IC50 [2]: 44.6 µM
- IC50 [3]: 40.4 µM
- IC50 [4]: 47.6 µM
- IC50 [5]: 46.9 µM

SMILES: COc1ccc(-n2cc(COC(=O)[C@]34CCC(C)(C)C[C@H]3C3=CC[C@@H]5[C@@]6(C)CC[C@H](O[C@@H]7O[C@H](CO[C@@H]8OC[C@H](O)[C@H](O)[C@@H]8O)[C@@H](O)[C@H](O)[C@H]7NC(C)=O)C(C)(C)[C@@H]6CC[C@@]5(C)[C@]3(C)CC4)nn2)cc1
- IC50 [1]: 20.7 µM
- IC50 [2]: 19.7 µM
- IC50 [3]: 12.2 µM
- IC50 [4]: 20 µM
- IC50 [5]: 19.7 µM

SMILES: CC(=O)N[C@H]1[C@H](O[C@H]2CC[C@]3(C)[C@H]4CC=C5[C@@H]6CC(C)(C)CC[C@]6(C(=O)OCc6cn(-c7ccc(Br)cc7)nn6)CC[C@@]5(C)[C@]4(C)CC[C@H]3C2(C)C)O[C@H](CO[C@@H]2OC[C@H](O)[C@H](O)[C@@H]2O)[C@@H](O)[C@@H]1O
- IC50 [1]: 12.5 µM
- IC50 [2]: 26.2 µM
- IC50 [3]: 12.6 µM
- IC50 [4]: 22.9 µM
- IC50 [5]: 12.4 µM

SMILES: CC(=O)N[C@H]1[C@H](O[C@H]2CC[C@]3(C)[C@H]4CC=C5[C@@H]6CC(C)(C)CC[C@]6(C(=O)OCc6cn(-c7ccc(C(F)(F)F)cc7)nn6)CC[C@@]5(C)[C@]4(C)CC[C@H]3C2(C)C)O[C@H](CO[C@@H]2OC[C@H](O)[C@H](O)[C@@H]2O)[C@@H](O)[C@@H]1O
- IC50 [1]: 14.2 µM
- IC50 [2]: 15.1 µM
- IC50 [3]: 11.8 µM
- IC50 [4]: 12.4 µM
- IC50 [5]: 12.8 µM

SMILES: CC(=O)N[C@H]1[C@H](O[C@H]2CC[C@]3(C)[C@H]4CC=C5[C@@H]6CC(C)(C)CC[C@]6(C(=O)OCc6cn(-c7cccc([N+](=O)[O-])c7)nn6)CC[C@@]5(C)[C@]4(C)CC[C@H]3C2(C)C)O[C@H](CO[C@@H]2OC[C@H](O)[C@H](O)[C@@H]2O)[C@@H](O)[C@@H]1O
- IC50 [1]: 37.2 µM
- IC50 [2]: 25.8 µM
- IC50 [3]: 33.3 µM
- IC50 [4]: 27.1 µM
- IC50 [5]: 37.8 µM

SMILES: CC(=O)N[C@H]1[C@H](O[C@H]2CC[C@]3(C)[C@H]4CC=C5[C@@H]6CC(C)(C)CC[C@]6(C(=O)OCc6cn(-c7cccc(Cl)c7)nn6)CC[C@@]5(C)[C@]4(C)CC[C@H]3C2(C)C)O[C@H](CO[C@@H]2OC[C@H](O)[C@H](O)[C@@H]2O)[C@@H](O)[C@@H]1O
- IC50 [1]: 7.69 µM
- IC50 [2]: 18.7 µM
- IC50 [3]: 8.1 µM
- IC50 [4]: 11.5 µM
- IC50 [5]: 10.9 µM

SMILES: CC(=O)N[C@H]1[C@H](O[C@H]2CC[C@]3(C)[C@H]4CC=C5[C@@H]6CC(C)(C)CC[C@]6(C(=O)OCc6cn(-c7cccc(F)c7)nn6)CC[C@@]5(C)[C@]4(C)CC[C@H]3C2(C)C)O[C@H](CO[C@@H]2OC[C@H](O)[C@H](O)[C@@H]2O)[C@@H](O)[C@@H]1O
- IC50 [1]: 19.6 µM
- IC50 [2]: 34.3 µM
- IC50 [3]: 18.2 µM
- IC50 [4]: 11.1 µM
- IC50 [5]: 18.4 µM

SMILES: CC(=O)N[C@H]1[C@H](O[C@H]2CC[C@]3(C)[C@H]4CC=C5[C@@H]6CC(C)(C)CC[C@]6(C(=O)OCc6cn(-c7cccc(C#N)c7)nn6)CC[C@@]5(C)[C@]4(C)CC[C@H]3C2(C)C)O[C@H](CO[C@@H]2OC[C@H](O)[C@H](O)[C@@H]2O)[C@@H](O)[C@@H]1O
- IC50 [1]: 29.2 µM
- IC50 [2]: 27.7 µM
- IC50 [3]: 27.7 µM
- IC50 [4]: 27 µM
- IC50 [5]: 28.8 µM

SMILES: CC(=O)N[C@H]1[C@H](O[C@H]2CC[C@]3(C)[C@H]4CC=C5[C@@H]6CC(C)(C)CC[C@]6(C(=O)OCc6cn(-c7ccccc7Br)nn6)CC[C@@]5(C)[C@]4(C)CC[C@H]3C2(C)C)O[C@H](CO[C@@H]2OC[C@H](O)[C@H](O)[C@@H]2O)[C@@H](O)[C@@H]1O
- IC50 [1]: 65.2 µM
- IC50 [2]: 68.2 µM
- IC50 [3]: 61.7 µM
- IC50 [4]: 13.2 µM
- IC50 [5]: 54.7 µM

SMILES: CC(=O)N[C@H]1[C@H](O[C@H]2CC[C@]3(C)[C@H]4CC=C5[C@@H]6CC(C)(C)CC[C@]6(C(=O)OCc6cn(-c7ccc(C(C)=O)cc7)nn6)CC[C@@]5(C)[C@]4(C)CC[C@H]3C2(C)C)O[C@H](CO[C@@H]2OC[C@H](O)[C@H](O)[C@@H]2O)[C@@H](O)[C@@H]1O
- IC50 [1]: 14 µM
- IC50 [2]: 14.8 µM
- IC50 [3]: 11.5 µM
- IC50 [4]: 12.8 µM
- IC50 [5]: 17.1 µM

SMILES: COC(=O)c1ccccc1-n1cc(COC(=O)[C@]23CCC(C)(C)C[C@H]2C2=CC[C@@H]4[C@@]5(C)CC[C@H](O[C@@H]6O[C@H](CO[C@@H]7OC[C@H](O)[C@H](O)[C@@H]7O)[C@@H](O)[C@H](O)[C@H]6NC(C)=O)C(C)(C)[C@@H]5CC[C@@]4(C)[C@]2(C)CC3)nn1
- IC50 [1]: 66.7 µM
- IC50 [2]: 86.8 µM
- IC50 [3]: 68.9 µM
- IC50 [4]: 38.2 µM
- IC50 [5]: 76.3 µM

SMILES: CC(=O)N[C@H]1[C@H](O[C@H]2CC[C@]3(C)[C@H]4CC=C5[C@@H]6CC(C)(C)CC[C@]6(C(=O)OCc6cn(-c7ccc(Cl)cc7Cl)nn6)CC[C@@]5(C)[C@]4(C)CC[C@H]3C2(C)C)O[C@H](CO[C@@H]2OC[C@H](O)[C@H](O)[C@@H]2O)[C@@H](O)[C@@H]1O
- IC50 [1]: 36 µM
- IC50 [2]: 29.1 µM
- IC50 [3]: 32.7 µM
- IC50 [4]: 38.8 µM
- IC50 [5]: 31.3 µM

SMILES: CC(=O)N[C@H]1[C@H](O[C@H]2CC[C@]3(C)[C@H]4CC=C5[C@@H]6CC(C)(C)CC[C@]6(C(=O)OCc6cn(-c7ccccc7)nn6)CC[C@@]5(C)[C@]4(C)CC[C@H]3C2(C)C)O[C@H](CO[C@@H]2OC[C@H](O)[C@H](O)[C@@H]2O)[C@@H](O)[C@@H]1O
- IC50 [1]: 9.97 µM
- IC50 [2]: 21.9 µM
- IC50 [3]: 18.3 µM
- IC50 [4]: 25.2 µM
- IC50 [5]: 19.6 µM
